Laboratory results from patent US11564394B2, “Distorted gold (I)-phosphine complexes and methods for use as antifungal agents” (University of Kentucky Research Foundation, priority 2019, dated 2023).

Tests used:
[1] = tested on: C. albicans ATCC MYA-2310(S) (strain D); experiment: MIC determination (broth microdilution); assay type: cell-based, Candida albicans; details: strain D = C. albicans ATCC MYA-2310(S); MIC-0; 48 h; listed as printed beside letter E
[2] = tested on: A. terreus ATCC MYA-3633 (strain R); assay type: cell-based, Aspergillus terreus; details: strain R = A. terreus ATCC MYA-3633; MIC-0; 72 h at 35° C.
[3] = tested on: C. neoformans ATCC MYA-85 (strain M); experiment: MIC determination (broth microdilution); assay type: cell-based, Cryptococcus neoformans; details: strain M = C. neoformans ATCC MYA-85; MIC-0; 72 h at 35° C.
[4] = tested on: C. auris AR Bank # 0390 (strain L); experiment: MIC determination (broth microdilution); assay type: cell-based, Candida auris; details: strain L = C. auris AR Bank # 0390; MIC-0; 48 h (CAS read at 24 h); Table 1 row printed without letter, below L; also in Table 2
[5] = tested on: A. flavus ATCC MYA-3631 (strain S); experiment: MIC determination (broth microdilution); assay type: cell-based, Aspergillus flavus; details: strain S = A. flavus ATCC MYA-3631; MIC-0; 72 h at 35° C.
[6] = tested on: C. albicans ATCC 64124(R) (strain F); assay type: cell-based, Candida albicans; details: strain F = C. albicans ATCC 64124(R); MIC-0; 48 h; listed as printed beside letter G
[7] = tested on: C. neoformans CN2 (strain O); experiment: MIC determination (broth microdilution); assay type: cell-based, Cryptococcus neoformans; details: MIC-0, 72 h at 35° C.
[8] = tested on: A. nidulans ATCC 38163 (strain Q); experiment: MIC determination (broth microdilution); assay type: cell-based, Aspergillus nidulans; details: strain Q = A. nidulans ATCC 38163; MIC-0; 72 h at 35° C.
[9] = tested on: C. albicans ATCC MYA-2876(S) (strain E); experiment: MIC determination (broth microdilution); assay type: cell-based, Candida albicans; details: strain E = C. albicans ATCC MYA-2876(S); MIC-0; 48 h; listed as printed beside letter F
[10] = tested on: C. glabrata ATCC 2001 (strain H); experiment: MIC determination (broth microdilution); assay type: cell-based, Candida glabrata; details: strain H = C. glabrata ATCC 2001; MIC-0; 48 h at 35° C.
[11] = tested on: F. graminearum 053 (strain T); assay type: cell-based, Fusarium graminearum; details: strain T = F. graminearum 053; MIC-0; room temperature, 5 days
[12] = tested on: C. albicans ATCC 90819(R) (strain G); assay type: cell-based, Candida albicans; details: strain G = C. albicans ATCC 90819(R); MIC-0; 48 h; listed as printed without letter, below G
[13] = tested on: C. krusei ATCC 6258 (strain I); experiment: MIC determination (broth microdilution); assay type: cell-based; details: strain I = C. krusei ATCC 6258; MIC-0; 48 h; listed as split over r16 and r17 (r17 printed beside letter J)
[14] = tested on: C. albicans ATCC 10231(R) (strain B); assay type: cell-based, Candida albicans
[15] = tested on: fungal strains (Candida spp., Cryptococcus spp., Aspergillus spp., Fusarium spp.); experiment: MIC determination, summary statements over the strain panel; assay type: cell-based; details: for overall assessment as antifungals: panel of twenty fungal strains (Table 1)
[16] = tested on: C. albicans ATCC MYA-1237(R) (strain C); assay type: cell-based, Candida albicans; details: strain C = C. albicans ATCC MYA-1237(R); MIC-0; 48 h; listed as printed beside letter D
[17] = tested on: C. neoformans CN1 (strain N); experiment: MIC determination (broth microdilution); assay type: cell-based, Cryptococcus neoformans; details: MIC-0, 72 h at 35° C.
[18] = tested on: C. albicans ATCC MYA-1003(R) (strain A); assay type: cell-based, Candida albicans; details: strain A = C. albicans ATCC MYA-1003(R); MIC-0; 48 h at 35° C.
[19] = tested on: C. neoformans CN3 (strain P); experiment: MIC determination (broth microdilution); assay type: cell-based, Cryptococcus neoformans; details: MIC-0, 72 h at 35° C.
[20] = tested on: C. auris AR Bank # 0384 (strain K); experiment: MIC determination (broth microdilution); assay type: cell-based, Candida auris; details: strain K = C. auris AR Bank # 0384; MIC-0; 48 h (CAS read at 24 h); Table 1; also in Table 2
[21] = tested on: C. parapsilosis ATCC 22019 (strain J); experiment: MIC determination (broth microdilution); assay type: cell-based; details: strain J = C. parapsilosis ATCC 22019; MIC-0; 48 h; listed as printed beside letter K
[22] = Aspergillus spp., Fusarium spp. and most of the non-albicans Candida strains

[Cl][Au-][P+](c1ccccc1)(c1ccccc1)c1ccccc1[P+]([Au-][Cl])(c1ccccc1)c1ccccc1 [Compound 1, [1,2-bis(diphenylphosphino)benzene]digold(I)]
MIC [1]: 7.8 µg/mL | MIC (in parentheses) [1]: 8.6 µM | MIC [2]: > 31.3 µg/mL | MIC (in parentheses) [2]: > 34.3 µM | MIC [3]: 0.98 µg/mL | MIC (in parentheses) [3]: 1.1 µM | MIC [4]: > 31.3 µg/mL | MIC (in parentheses) [4]: > 34.3 µM | MIC [5]: > 31.3 µg/mL | MIC (in parentheses) [5]: > 34.3 µM | MIC [6]: 7.8 µg/mL | MIC (in parentheses) [6]: 8.6 µM | MIC [7]: 3.9 µg/mL | MIC (in parentheses) [7]: 4.3 µM | MIC [8]: > 31.3 µg/mL | MIC (in parentheses) [8]: > 34.3 µM | MIC [9]: 7.8 µg/mL | MIC (in parentheses) [9]: 8.6 µM | MIC [10]: 7.8 µg/mL | MIC (in parentheses) [10]: 8.6 µM | MIC [11]: > 31.3 µg/mL | MIC (in parentheses) [11]: > 34.3 µM | MIC [12]: 7.8 µg/mL | MIC (in parentheses) [12]: 8.6 µM | MIC [13]: 15.6 µg/mL | MIC (in parentheses) [13]: 17.1 µM | MIC [14]: 15.6 (17.1) μg/mL | MIC (in parentheses) [14]: 15.6 (17.1) μM | antifungal activity [15, 22]: inactive | overall assessment as antifungals [15]: poor antifungals | MIC [16]: 0.49 µg/mL | MIC (in parentheses) [16]: 5.4 µM | MIC [17]: 3.9 µg/mL | MIC (in parentheses) [17]: 4.3 µM | MIC [18]: 3.9 µg/mL | MIC (in parentheses) [18]: 4.3 µM | MIC [19]: 15.6 µg/mL | MIC (in parentheses) [19]: 17.1 µM | MIC [20]: > 31.3 µg/mL | MIC (in parentheses) [20]: > 34.3 µM | MIC [21]: 15.6 µg/mL | MIC (in parentheses) [21]: 17.1 µM

[Cl-].c1ccc([P+]2(c3ccccc3)c3ccccc3[P+](c3ccccc3)(c3ccccc3)[Au-3]23[P+](c2ccccc2)(c2ccccc2)c2ccccc2[P+]3(c2ccccc2)c2ccccc2)cc1 [Compound 2, bis-[1,2-bis(diphenylphosphino)benzene]gold(1)]
MIC [1]: 7.8 µg/mL | MIC (in parentheses) [1]: 6.9 µM | MIC [2]: > 31.3 µg/mL | MIC (in parentheses) [2]: > 27.8 µM | MIC [3]: 3.9 µg/mL | MIC (in parentheses) [3]: 3.5 µM | MIC [4]: > 31.3 µg/mL | MIC (in parentheses) [4]: > 27.8 µM | MIC [5]: > 31.3 µg/mL | MIC (in parentheses) [5]: > 27.8 µM | MIC [6]: 7.8 µg/mL | MIC (in parentheses) [6]: 6.9 µM | MIC [7]: 3.9 µg/mL | MIC (in parentheses) [7]: 3.5 µM | MIC [8]: > 31.3 µg/mL | MIC (in parentheses) [8]: > 27.8 µM | MIC [9]: 7.8 µg/mL | MIC (in parentheses) [9]: 6.9 µM | MIC [10]: 7.8 µg/mL | MIC (in parentheses) [10]: 6.9 µM | MIC [11]: 31.3 µg/mL | MIC (in parentheses) [11]: 27.8 µM | MIC [12]: 7.8 µg/mL | MIC (in parentheses) [12]: 6.9 µM | MIC [13]: 15.6 µg/mL | MIC (in parentheses) [13]: 13.9 µM | MIC [14]: 15.6 (13.9) μg/mL | MIC (in parentheses) [14]: 15.6 (13.9) μM | antifungal activity [15, 22]: inactive | overall assessment as antifungals [15]: poor antifungals | MIC [16]: 15.6 µg/mL | MIC (in parentheses) [16]: 13.9 µM | MIC [17]: 3.9 µg/mL | MIC (in parentheses) [17]: 3.5 µM | MIC [18]: 15.6 µg/mL | MIC (in parentheses) [18]: 13.9 µM | MIC [19]: 3.9 µg/mL | MIC (in parentheses) [19]: 3.5 µM | MIC [20]: > 31.3 µg/mL | MIC (in parentheses) [20]: > 27.8 µM | MIC [21]: 7.8 µg/mL | MIC (in parentheses) [21]: 6.9 µM

CC1CCC(C)[P+]1([Au-][Cl])c1ccccc1[P+]1([Au-][Cl])C(C)CCC1C [Compound 3, [1,2-bis[(2S,5S)-2,5-dimethylphospholano]benzene]digold(1)]
MIC [1]: 31.3 µg/mL | MIC (in parentheses) [1]: 40.6 µM | MIC [2]: > 31.3 µg/mL | MIC (in parentheses) [2]: > 40.6 µM | MIC [3]: 1.95 µg/mL | MIC (in parentheses) [3]: 2.5 µM | MIC [4]: > 31.3 µg/mL | MIC (in parentheses) [4]: > 40.6 µM | MIC [5]: > 31.3 µg/mL | MIC (in parentheses) [5]: > 40.6 µM | MIC [6]: 31.3 µg/mL | MIC (in parentheses) [6]: 40.6 µM | MIC [7]: 31.3 µg/mL | MIC (in parentheses) [7]: 40.6 µM | MIC [8]: > 31.3 µg/mL | MIC (in parentheses) [8]: > 40.6 µM | MIC [9]: 31.3 µg/mL | MIC (in parentheses) [9]: 40.6 µM | MIC [10]: > 31.3 µg/mL | MIC (in parentheses) [10]: > 40.6 µM | MIC [11]: > 31.3 µg/mL | MIC (in parentheses) [11]: > 40.6 µM | MIC [12]: 31.3 µg/mL | MIC (in parentheses) [12]: 40.6 µM | MIC [13]: > 31.3 µg/mL | MIC (in parentheses) [13]: > 40.6 µM | MIC [14]: >31.3 (40.6) μg/mL | MIC (in parentheses) [14]: >31.3 (40.6) μM | antifungal activity ([15]; all fungal strains tested, except C. neoformans (strain M)): completely inactive | overall assessment as antifungals [15]: poor antifungals | MIC [16]: > 31.3 µg/mL | MIC (in parentheses) [16]: 40.6 µM | MIC [17]: > 31.3 µg/mL | MIC (in parentheses) [17]: > 40.6 µM | MIC [18]: 31.3 µg/mL | MIC (in parentheses) [18]: 40.6 µM | MIC [19]: > 31.3 µg/mL | MIC (in parentheses) [19]: > 40.6 µM | MIC [20]: > 31.3 µg/mL | MIC (in parentheses) [20]: > 40.6 µM | MIC [21]: > 31.3 µg/mL | MIC (in parentheses) [21]: > 40.6 µM
